Key:
[1] = Compound was tested for the pseudo first-order rate constants for the inhibition of the cleavage step (k2) of the hammerhead ribozyme at a concentration of 100 uM; too active and complete inhibition is observed
[2] = Compound was tested for the pseudo first-order rate constants for the inhibition of the cleavage step (k2) of the hammerhead ribozyme at a concentration of 10 uM
[3] = Compound was tested for the pseudo first-order rate constants for the inhibition of the cleavage step (k2) of the hammerhead ribozyme at a concentration of 100 uM; too active and complete inhibition is observed; remark: listed apart in the source
[4] = Compound was tested for the pseudo first-order rate constants for the inhibition of the cleavage step (k2) of the hammerhead ribozyme at a concentration of 100 uM
[5] = Compound was tested for the pseudo first-order rate constants for the inhibition of the cleavage step (k2) of the hammerhead ribozyme at a concentration of 100 uM; not determined at this concentration
[6] = Compound was tested for the pseudo first-order rate constants for the inhibition of the cleavage step (k2) of the hammerhead ribozyme at a concentration of 1 uM
[7] = Compound was tested for the pseudo first-order rate constants for the inhibition of the cleavage step (k2) of the hammerhead ribozyme at a concentration of 1 uM; not determined at this concentration

SMILES	K2 [1]	K2 [2] [min⁻¹]	K2 [3]	K2 [4] [min⁻¹]	K2 [5]	K2 [6] [min⁻¹]	K2 [7]
NC[C@H]1O[C@H](O[C@H]2[C@H](O)[C@@H](O[C@H]3O[C@H](CSCCOCCSSCCOCCSC[C@H]4O[C@H](O[C@@H]5[C@@H](O)[C@H](O[C@H]6O[C@H](CN)[C@@H](O)C[C@H]6N)[C@@H](N)C[C@H]5N)[C@H](O)[C@@H](N)[C@@H]4O)[C@@H](O)[C@H](N)[C@H]3O)[C@H](N)C[C@@H]2N)[C@H](O)[C@@H](O)[C@@H]1O	Too active and complete inhibition is observed	0.014	–	–	–	–	–
NC[C@H]1O[C@H](O[C@H]2[C@H](O)[C@@H](O[C@H]3O[C@H](CO)[C@@H](O)[C@H](N)[C@H]3O)[C@H](N)C[C@@H]2N)[C@H](O)[C@@H](O)[C@@H]1O [KANAMYCIN A]	Too active and complete inhibition is observed	–	Too active and complete inhibition is observed	0.058	–	–	–
NCC1O[C@H](O[C@H]2[C@@H](O)[C@H](O[C@H]3[C@H](O)[C@@H](N)C[C@@H](N)[C@@H]3O[C@H]3O[C@H](CN)[C@@H](O)[C@H](O)[C@H]3N)O[C@@H]2CSCCOCCSSCCOCCSC[C@H]2O[C@@H](O[C@H]3[C@H](O)[C@@H](N)C[C@@H](N)[C@@H]3O[C@H]3O[C@H](CN)[C@@H](O)[C@H](O)[C@H]3N)[C@H](O)[C@@H]2O[C@@H]2OC(CN)[C@H](O)[C@@H](O)[C@@H]2N)[C@H](N)[C@@H](O)[C@@H]1O (stereo partly specified)	–	0.003	–	–	No inhibition	0.041	–
NCC1O[C@H](O[C@H]2[C@@H](O)[C@H](O[C@H]3[C@H](O)[C@@H](N)C[C@@H](N)[C@@H]3O[C@H]3O[C@H](CN)[C@@H](O)[C@H](O)[C@H]3N)O[C@@H]2CSCCOCCSSCCOCCSC[C@H]2O[C@H](O[C@@H]3[C@@H](O)[C@H](O[C@H]4O[C@H](CN)[C@@H](O)C[C@H]4N)[C@@H](N)C[C@H]3N)[C@H](O)[C@@H](N)[C@@H]2O)[C@H](N)[C@@H](O)[C@@H]1O (stereo partly specified)	–	0.008	–	–	–	0.046	–
NC[C@@H]1O[C@H](O[C@H]2[C@@H](O)[C@H](O[C@@H]3[C@@H](O)[C@H](N)C[C@H](N)[C@H]3O[C@H]3O[C@H](CN)[C@@H](O)[C@H](O)[C@H]3N)O[C@@H]2CO)[C@H](N)[C@@H](O)[C@@H]1O [FRAMYCETIN]	–	0.018	–	–	No inhibition	0.062	–
NC[C@H]1O[C@H](O[C@H]2[C@H](O)[C@@H](O[C@H]3O[C@H](CSCCOCCSSCCOCCSC[C@H]4O[C@H](O[C@@H]5[C@@H](O)[C@H](O[C@H]6O[C@H](CN)[C@@H](O)[C@H](O)[C@H]6O)[C@@H](N)C[C@H]5N)[C@H](O)[C@@H](N)[C@@H]4O)[C@@H](O)[C@H](N)[C@H]3O)[C@H](N)C[C@@H]2N)[C@H](O)[C@@H](O)[C@@H]1O	Too active and complete inhibition is observed	0.017	–	–	–	–	–
NC[C@H]1OC(O[C@H]2[C@H](O)[C@@H](OC3O[C@H](CO)[C@@H](O)[C@H](N)[C@H]3O)[C@H](N)C[C@@H]2N)[C@H](N)C[C@@H]1O (single isomer, unassigned) [TOBRAMYCIN]	Too active and complete inhibition is observed	0.051	–	0.012	–	–	–
NC[C@H]1O[C@H](O[C@H]2[C@H](O)[C@@H](O[C@H]3O[C@H](CSCCOCCSSCCOCCSC[C@H]4O[C@H](O[C@@H]5[C@@H](O)[C@H](O[C@H]6O[C@H](CN)[C@@H](O)C[C@H]6N)[C@@H](N)C[C@H]5N)[C@H](O)[C@@H](N)[C@@H]4O)[C@@H](O)[C@H](N)[C@H]3O)[C@H](N)C[C@@H]2N)[C@H](N)C[C@@H]1O [Tobramycin-Tobramycin]	Too active and complete inhibition is observed	0.011	–	–	–	–	No inhibition

— ChEMBL document CHEMBL1130493, “Dimeric aminoglycosides: Design, synthesis and RNA binding” (Bioorg Med Chem Lett, 1997)
